Patent US10801035B2, “Plants having increased tolerance to herbicides” (BASF SE, priority 2011, dated 2020)

Experiments:
[1] = test system: transgenic soybean plants (T0 cuttings) expressing heterologous HPPD; assay: Greenhouse testing of transgenic soybean plants (T0 cuttings); assay type: in vivo, Glycine max; parameters: key: % injury: 0% = no injury, 100% = complete death; settings: two weeks after treatment
Protocol: Transgenic plants expressing heterologous HPPD or HST enzymes are tested for tolerance against coumarone-derivative herbicides in greenhouse experiments.
For post emergence treatment, the test plants are first grown to a height of 3 to 15 cm, depending on the plant habit, and only then treated with the herbicides. For this purpose, the test plants are either sown directly and grown in the same containers, or they are first grown separately and transplanted into the test containers a few days prior to treatment.
For testing of T0 plants, cuttings can be used. In the case of soybean plants, an optimal shoot for cutting is about 7.5 to 10 cm tall, with at least two nodes present. Each cutting is taken from the original transformant (mother plant) and dipped into rooting hormone powder (indole-3-butyric acid, IBA). The cutting is then placed in oasis wedges inside a bio-dome. Wild type cuttings are also taken simultaneously to serve as controls. The cuttings are kept in the biodome for 5-7 days and then transplanted to pots and then acclimated in the growth chamber for two more days. Subsequently, the cuttings are transferred to the greenhouse, acclimated for approximately 4 days, and then subjected to spray tests as indicated.
Depending on the species, the plants are kept at 10-25° C. or 20-35° C. The test period extends over 3 weeks. During this time, the plants are tended and their response to the individual treatments is evaluated. Herbicide injury evaluations are taken at 2 and 3 weeks after treatment. Plant injury is rated on a scale of 0 to 9, 0 being no injury and 9 being complete death. Tolerance to coumarone-derivative herbicides can also be assessed in Arabidopsis. In this case transgenic Arabidopsis thaliana plants are assayed for improved tolerance to coumarone-derivative herbicides in 48-well plates. Seeds are surface sterilized by stirring for 5 min in ethanol+water (70+30 by volume), rinsing one time with ethanol+water (70+30 by volume) and two times with a sterile, deionized water. The seeds are resuspended in 0.1% agar dissolved in water (w/v). Four to five seeds per well are plated on solid nutrient medium consisting of half-strength Murashige Skoog nutrient solution, pH 5.8 (Murashige and Skoog (1962) Physiologia Plantarum 15: 473-497). Compounds are dissolved in dimethylsulfoxid (DMSO) and added to the medium prior solidification (final DMSO concentration 0.1%). Multi well plates are incubated in a growth chamber at 22° C., 75% relative humidity and 110 μmol Phot * m-2 * s-1 with 14: 10 h light: dark photoperiod. Seven to ten days after seeding growth inhibition is evaluated by comparison to wild type plants. Tolerance factor is calculated by dividing the plant growth IC50 value of transgenic plants containing a HPPD and/or HST sequence by that of wildtype plants. Additionally, T1 and T2 transgenic Arabidopsis plants can be tested for improved tolerance to coumarone-derivative herbicides in a greenhouse studies. Herbicide injury scoring is done 2-3 weeks after treatment and is rated on a scale of 0 to 100%, 0% being no injury and 100% being complete death.

Synechococcus HPPD = assay: HPPD activity assay, Synechococcus HPPD; assay type: biochemical; settings: normalized on Hordeum HPPD
Protocol: HPPD produces homogentisic acid and CO2 from 4-hydroxyphenylpyruvate (4-HPP) and O2. The activity assay for HPPD is based on the analysis of homogentisic acid by reversed phase HPLC.
The assay mixture can contain 150 mM potassium phosphate buffer pH 7.0, 50 mM L-ascorbic acid, 1 μM FeSO4 and 7 μg of purified enzyme in a total volume of 1 ml. Inhibitors are dissolved in DMSO (dimethylsulfoxide) to a concentration of 20 mM or 0.5 mM, respectively. From this stock solution serial five-fold dilutions are prepared in DMSO, which are used in the assay. The respective inhibitor solution accounts for 1% of the assay volume. […]
Activities are normalized by setting the uninhibited enzyme activity to 100%. […] values are calculated using non-linear regression. […]
Inhibitors are dissolved in DMSO (dimethylsulfoxide) to a concentration of 0.5 mM. […] IC50 values are calculated using non-linear regression.
Using methods which are described in the above examples or well known in the art, purified, recombinant wildtype HPPD enzymes are characterized with respect to their kinetic properties and sensitivity towards HPPD inhibiting herbicides. Apparent michaelis constants (Km) and maximal reaction velocities (Vmax) are calculated by non-linear regression with the software GraphPad Prism 5 (GraphPad Software, La Jolla, USA) using a substrate inhibition model. […]

## CC1=NOC(c2c(Cl)ccc(C3=C(O)c4ncccc4N(CC(F)F)S3(=O)=O)c2Cl)C1 (stereo not shown) [Inhibitor 1, 3-[2,4-dichloro-3-(3-methyl-4,5-dihydroisoxazol-5-yl)phenyl]-1-(2,2-difluoroethyl)-2,2-dioxo-pyrido[3,2-c]thiazin-4-ol]
[1]; event AV4283 (probably Synechococcus HPPD**, marked: tested at a half rate), dose line 62 g/ha
  Injury evaluation: 20
[1]; event AV4283 (probably Synechococcus HPPD**, marked: tested at a half rate), dose line 125 g/ha
  Injury evaluation: 20
[1]; event AV4283 (probably Synechococcus HPPD**, marked: tested at a half rate), dose line 250 g/ha
  Injury evaluation: 20
[1]; event AV4287 (marked: tested at a half rate), dose line 62 g/ha
  Injury evaluation: 0
[1]; event AV4287 (marked: tested at a half rate), dose line 125 g/ha
  Injury evaluation: 0
[1]; event AV4287 (marked: tested at a half rate), dose line 250 g/ha
  Injury evaluation: 0
[1]; event AV4553 (Hordeum HPPD), dose 62 g/ha
  Injury evaluation: 0
[1]; event AV4553 (Hordeum HPPD), dose 125 g/ha
  Injury evaluation: 10
[1]; event AV4553 (Hordeum HPPD), dose 250 g/ha
  Injury evaluation: 10
[1]; event HT1833 (Arabidopsis HPPD_M335H, plastidic), dose 62 g/ha
  Injury evaluation: 0
[1]; event HT1833 (Arabidopsis HPPD_M335H, plastidic), dose 125 g/ha
  Injury evaluation: 5
[1]; event HT1833 (Arabidopsis HPPD_M335H, plastidic), dose 250 g/ha
  Injury evaluation: 5
[1]; event LG5831** (Arabidopsis HPPD_M335H, plastidic), marked: tested at a half rate, dose line 62 g/ha
  Injury evaluation: 0
[1]; event LG5831** (Arabidopsis HPPD_M335H, plastidic), marked: tested at a half rate, dose line 125 g/ha
  Injury evaluation: 0
[1]; event LG5831** (Arabidopsis HPPD_M335H, plastidic), marked: tested at a half rate, dose line 250 g/ha
  Injury evaluation: 0
[1]; event LG6156 (Synechocystis HPPD), dose 62 g/ha
  Injury evaluation: 0
[1]; event LG6156 (Synechocystis HPPD), dose 125 g/ha
  Injury evaluation: 10
[1]; event LG6156 (Synechocystis HPPD), dose 250 g/ha
  Injury evaluation: 10
[1]; event LJ383, dose 62 g/ha
  Injury evaluation: 10
[1]; event LJ383, dose 125 g/ha
  Injury evaluation: 10
[1]; event LJ383, dose 250 g/ha
  Injury evaluation: 20
[1]; event LJ387 (Hordeum HPPD), dose 62 g/ha
  Injury evaluation: 0
[1]; event LJ387 (Hordeum HPPD), dose 125 g/ha
  Injury evaluation: 0
[1]; event LJ387 (Hordeum HPPD), dose 250 g/ha
  Injury evaluation: 0
[1]; event LJ409, dose 62 g/ha
  Injury evaluation: 10
[1]; event LJ409, dose 125 g/ha
  Injury evaluation: 10
[1]; event LJ409, dose 250 g/ha
  Injury evaluation: 15
Synechococcus HPPD
  Normalized tolerance index (TI): 2.2
